Measured values taken from US11957759B1, “Rapidly accelerated fibrosarcoma (RAF) degrading compounds and associated methods of use” (Arvinas Operations, Inc., priority 2022, dated 2024).

How the values were obtained:
B-RAF G466V = target: T1, B-RAF G466V (Homo sapiens, UniProt P15056, G466V); assay: Target protein degradation, assay D: T-Rex 293 cells, HA-BRAF_G466V, 384 well format; format: cell-based; conditions: T-Rex 293 HA-BRAF_G466V cells, 24 hours, Examples 83-269; for DC50: Assay D; for Dmax: T-REx-293, Assay D
T1 construct: expressed in transfected cells; host or cells: T-Rex 293 cells (Invitrogen #R71007)
T1 sequence (P15056 whole entry G466V): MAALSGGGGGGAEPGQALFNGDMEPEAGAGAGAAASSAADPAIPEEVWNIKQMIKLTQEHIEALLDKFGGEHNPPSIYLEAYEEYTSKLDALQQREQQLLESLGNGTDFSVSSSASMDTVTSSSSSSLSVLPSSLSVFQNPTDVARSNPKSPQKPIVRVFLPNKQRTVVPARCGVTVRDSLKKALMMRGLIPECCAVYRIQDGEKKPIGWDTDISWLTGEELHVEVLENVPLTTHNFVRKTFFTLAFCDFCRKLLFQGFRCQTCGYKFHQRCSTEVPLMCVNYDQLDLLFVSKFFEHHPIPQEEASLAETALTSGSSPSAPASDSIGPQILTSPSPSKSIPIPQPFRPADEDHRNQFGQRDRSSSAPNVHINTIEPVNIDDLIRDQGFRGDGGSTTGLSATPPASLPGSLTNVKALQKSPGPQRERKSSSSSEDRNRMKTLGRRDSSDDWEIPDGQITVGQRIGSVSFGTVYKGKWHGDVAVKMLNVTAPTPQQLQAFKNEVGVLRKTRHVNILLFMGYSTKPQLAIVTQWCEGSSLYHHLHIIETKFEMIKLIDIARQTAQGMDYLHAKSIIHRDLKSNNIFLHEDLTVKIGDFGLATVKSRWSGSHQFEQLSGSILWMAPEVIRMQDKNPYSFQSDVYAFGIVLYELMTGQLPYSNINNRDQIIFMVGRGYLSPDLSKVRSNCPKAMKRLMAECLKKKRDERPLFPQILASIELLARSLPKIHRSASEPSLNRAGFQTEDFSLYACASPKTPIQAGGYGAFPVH
Method in brief: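 T-Rex 293 cells stably expressing doxycycline-induced (1 ng/mL) HA-BRAF G466V treated 24 h at 37 °C with PROTACs, 11-point 1:3 dilution, 300 nM to 5 pM final, 0.5% DMSO. Fixed cells immunostained for HA and imaged by high-content microscopy; DC50 and Dmax (% of control) derived, toxicity from nuclei counts versus DMSO.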

B-RAF V600E = target: T2, B-RAF V600E (Homo sapiens, UniProt P15056, V600E); assay: Target protein degradation, assay C: T-Rex 293 cells, HA-BRAF_V600E, 384 well format; format: cell-based; conditions: T-Rex 293 HA-BRAF_V600E cells, 24 hours, Examples 83-269; for DC50: Assay C; for Dmax: T-REx-293, Assay C
T2 construct: expressed in transfected cells; host or cells: T-Rex 293 cells (Invitrogen #R71007)
T2 sequence (P15056 whole entry V600E): as the sequence (P15056 whole entry G466V) above, with V466G, V600E counted along it
Method in brief: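 T-Rex 293 cells stably expressing doxycycline-induced (1 ng/mL) HA-BRAF V600E were treated 24 h at 37 °C with compound (300 nM–5 pM, 11 points, 0.5% DMSO). HA immunofluorescence was quantified by high-content imaging to give DC50 and Dmax (% of control); nuclei counts versus DMSO gauged toxicity.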

Row | Structure (SMILES) | DC50 (B-RAF G466V) | Dmax (B-RAF G466V) | DC50 (B-RAF V600E) | Dmax (B-RAF V600E)
1 | CN(c1ccc2c(c1)CN([C@@H]1CCC(=O)NC1=O)C2=O)[C@H]1CC[C@H](N2CCN(c3ccc(-n4cnc5ccc(Oc6c(F)ccc(NS(=O)(=O)N7CC[C@@H](F)C7)c6C#N)cc5c4=O)cc3)CC2)CC1 [Example 229, (3R)-N-(2-cyano-4-fluoro-3-{[4-oxo-3-(4-{4-[(1r,4r)-4-({2-[(3R)-2,6-dioxopiperidin-3-yl]-1-oxo-2,3-dihydro-1H-isoindol-5-yl}(methyl)amino)cyclohexyl]piperazin-1-yl}phenyl)-3,4-dihydroquinazolin-6-yl]oxy}phenyl)-3-fluoropyrrolidine-1-sulfonamide] | 1 to 10 nM | 35 to 70% | 50 to 500 nM | 35 to 70%
2 | CN(c1ccc2c(c1)CN([C@H]1CCC(=O)NC1=O)C2=O)[C@H]1CC[C@@H](N2CCN(c3ccc(-n4cnc5ccc(Oc6c(F)ccc(NS(=O)(=O)N7CC[C@@H](F)C7)c6C#N)cc5c4=O)cc3)CC2)CC1 [Example 230, (3R)-N-(2-cyano-4-fluoro-3-{[4-oxo-3-(4-(4-[(1r,4r)-4-({2-[(3S)-2,6-dioxopiperidin-3-yl]-1-oxo-2,3-dihydro-1H-isoindol-5-yl}(methyl)amino)cyclohexyl]piperazin-1-yl}phenyl)-3,4-dihydroquinazolin-6-yl]oxy}phenyl)-3-fluoropyrrolidine-1-sulfonamide] | 1 to 10 nM | 35 to 70% | 50 to 500 nM | 35 to 70%
3 | CN(c1ccc2c(c1)CN([C@H]1CCC(=O)NC1=O)C2=O)[C@H]1CC[C@H](N2CCN(c3ccc(-n4cnc5ccc(Oc6c(F)ccc(NS(=O)(=O)N7CC[C@@H](F)C7)c6C#N)cc5c4=O)cc3)CC2)CC1 [Example 231, (3R)-N-(2-cyano-4-fluoro-3-{[4-oxo-3-(4-(4-[(1s,4s)-4-({2-[(3S)-2,6-dioxopiperidin-3-yl]-1-oxo-2,3-dihydro-1H-isoindol-5-yl}(methyl)amino)cyclohexyl]piperazin-1-yl}phenyl)-3,4-dihydroquinazolin-6-yl]oxy}phenyl)-3-fluoropyrrolidine-1-sulfonamide] | 1 to 10 nM | 35 to 70% | 50 to 500 nM | 35 to 70%
4 | C[C@H]1CC(CN2CCC(c3ccc4c(c3)CN(C3CCC(=O)NC3=O)C4=O)CC2)CCN1c1ccc(-n2cnc3ccc(Oc4c(F)ccc(NS(=O)(=O)N5CC[C@@H](F)C5)c4C#N)cc3c2=O)cc1 (stereo partly drawn) [Example 232, (3R)-N-{2-cyano-3-[(3-{4-[(2S)-4-({4-[2-(2,6-dioxopiperidin-3-yl)-1-oxo-2,3-dihydro-1H-isoindol-5-yl]piperidin-1-yl}methyl)-2-methylpiperidin-1-yl]phenyl}-4-oxo-3,4-dihydroquinazolin-6-yl)oxy]-4-fluorophenyl}-3-fluoropyrrolidine-1-sulfonamide] | 1 to 10 nM | 35 to 70% | 50 to 500 nM | 35 to 70%
5 | N#Cc1c(NS(=O)(=O)N2CC[C@@H](F)C2)ccc(F)c1Oc1ccc2ncn(-c3ccc(N4CCC(CN5CC6(CCN(c7ccc8c(c7)CN([C@H]7CCC(=O)NC7=O)C8=O)CC6)C5)C4)cc3)c(=O)c2c1 (stereo partly drawn) [Example 233, (3R)-N-(2-cyano-3-{[3-(4-{3-[(7-{2-[(3S)-2,6-dioxopiperidin-3-yl]-1-oxo-2,3-dihydro-1H-isoindol-5-yl}-2,7-diazaspiro[3.5]nonan-2-yl)methyl]pyrrolidin-1-yl}phenyl)-4-oxo-3,4-dihydroquinazolin-6-yl]oxy}-4-fluorophenyl)-3-fluoropyrrolidine-1-sulfonamide] | 10 to 30 nM | 35 to 70% | 50 to 500 nM | 35 to 70%
6 | Cc1cc(N2CC(CN3CCN(c4ccc(-n5cnc6ccc(Oc7c(F)ccc(NS(=O)(=O)N8CC[C@@H](F)C8)c7C#N)cc6c5=O)cc4)CC3)C2)cc2c1C(=O)N([C@H]1CCC(=O)NC1=O)C2 [Example 234, (3R)-N-(2-cyano-3-{[3-(4-{4-[(1-{2-[(3S)-2,6-dioxopiperidin-3-yl]-7-methyl-1-oxo-2,3-dihydro-1H-isoindol-5-yl}azetidin-3-yl)methyl]piperazin-1-yl}phenyl)-4-oxo-3,4-dihydroquinazolin-6-yl]oxy}-4-fluorophenyl)-3-fluoropyrrolidine-1-sulfonamide] | 1 to 10 nM | 35 to 70% | 50 to 500 nM | 35 to 70%
7 | Cc1cc(N2CC(CN3CCN(c4ccc(-n5cnc6ccc(Oc7c(F)ccc(NS(=O)(=O)N8CC[C@@H](F)C8)c7C#N)cc6c5=O)cc4)CC3)C2)cc2c1C(=O)N([C@@H]1CCC(=O)NC1=O)C2 [Example 235, (3R)-N-(2-cyano-3-{[3-(4-{4-[(1-{2-[(3R)-2,6-dioxopiperidin-3-yl]-7-methyl-1-oxo-2,3-dihydro-1H-isoindol-5-yl}azetidin-3-yl)methyl]piperazin-1-yl}phenyl)-4-oxo-3,4-dihydroquinazolin-6-yl]oxy}-4-fluorophenyl)-3-fluoropyrrolidine-1-sulfonamide] | 1 to 10 nM | 35 to 70% | 50 to 500 nM | 35 to 70%
8 | COc1cc(N2CC(CN3CCN(c4ccc(-n5cnc6ccc(Oc7c(F)ccc(NS(=O)(=O)N8CC[C@@H](F)C8)c7C#N)cc6c5=O)cc4)CC3)C2)cc2c1C(=O)N([C@H]1CCC(=O)NC1=O)C2 [Example 236, (3R)-N-(2-cyano-3-{[3-(4-{4-[(1-{2-[(3S)-2,6-dioxopiperidin-3-yl]-7-methoxy-1-oxo-2,3-dihydro-1H-isoindol-5-yl}azetidin-3-yl)methyl]piperazin-1-yl}phenyl)-4-oxo-3,4-dihydroquinazolin-6-yl]oxy}-4-fluorophenyl)-3-fluoropyrrolidine-1-sulfonamide] | 10 to 30 nM | ≥ 70% | 50 to 500 nM | 35 to 70%
9 | COc1cc(N2CC(CN3CCN(c4ccc(-n5cnc6ccc(Oc7c(F)ccc(NS(=O)(=O)N8CC[C@@H](F)C8)c7C#N)cc6c5=O)cc4)CC3)C2)cc2c1C(=O)N([C@@H]1CCC(=O)NC1=O)C2 [Example 237, (3R)-N-(2-cyano-3-{[3-(4-{4-[(1-{2-[(3R)-2,6-dioxopiperidin-3-yl]-7-methoxy-1-oxo-2,3-dihydro-1H-isoindol-5-yl}azetidin-3-yl)methyl]piperazin-1-yl}phenyl)-4-oxo-3,4-dihydroquinazolin-6-yl]oxy}-4-fluorophenyl)-3-fluoropyrrolidine-1-sulfonamide] | 1 to 10 nM | ≥ 70% | 50 to 500 nM | 35 to 70%
10 | N#Cc1c(NS(=O)(=O)N2CC[C@@H](F)C2)ccc(F)c1Oc1ccc2ncn(-c3ccc(N4CCC(CN5CC6(CCN(c7ccc8c(c7)CN([C@H]7CCC(=O)NC7=O)C8=O)CC6)C5)CC4)cc3)c(=O)c2c1 [Example 238, (3R)-N-(2-cyano-3-{[3-(4-{4-[(7-{2-[(3S)-2,6-dioxopiperidin-3-yl]-1-oxo-2,3-dihydro-1H-isoindol-5-yl}-2,7-diazaspiro[3.5]nonan-2-yl)methyl]piperidin-1-yl}phenyl)-4-oxo-3,4-dihydroquinazolin-6-yl]oxy}-4-fluorophenyl)-3-fluoropyrrolidine-1-sulfonamide] | 1 to 10 nM | ≥ 70% | 50 to 500 nM | ≥ 70%
11 | N#Cc1c(NS(=O)(=O)N2CC[C@@H](F)C2)ccc(F)c1Oc1ccc2ncn(-c3cccc(N4CCN(CC5CCN(c6ccc7c(c6)CN([C@H]6CCC(=O)NC6=O)C7=O)CC5)CC4)c3)c(=O)c2c1 [Example 239, (3R)-N-(2-cyano-3-{[3-(3-{4-[(1-{2-[(3S)-2,6-dioxopiperidin-3-yl]-1-oxo-2,3-dihydro-1H-isoindol-5-yl}piperidin-4-yl)methyl]piperazin-1-yl}phenyl)-4-oxo-3,4-dihydroquinazolin-6-yl]oxy}-4-fluorophenyl)-3-fluoropyrrolidine-1-sulfonamide] | 1 to 10 nM | ≥ 70% | 50 to 500 nM | ≥ 70%
12 | N#Cc1c(NS(=O)(=O)N2CC[C@@H](F)C2)ccc(F)c1Oc1ccc2ncn(-c3cccc(C4CCN(CC5CCN(c6ccc7c(c6)CN([C@H]6CCC(=O)NC6=O)C7=O)CC5)CC4)c3)c(=O)c2c1 [Example 240, (3R)-N-(2-cyano-3-{[3-(3-{1-[(1-{2-[(3S)-2,6-dioxopiperidin-3-yl]-1-oxo-2,3-dihydro-1H-isoindol-5-yl}piperidin-4-yl)methyl]piperidin-4-yl}phenyl)-4-oxo-3,4-dihydroquinazolin-6-yl]oxy}-4-fluorophenyl)-3-fluoropyrrolidine-1-sulfonamide] | 1 to 10 nM | ≥ 70% | 5 to 50 nM | ≥ 70%
13 | N#Cc1c(NS(=O)(=O)N2CC[C@@H](F)C2)ccc(F)c1Oc1ccc2ncn(-c3ccc(N4CCN(C(=O)C5CN(c6ccc7c(c6)CN([C@H]6CCC(=O)NC6=O)C7=O)C5)CC4)cc3)c(=O)c2c1 [Example 243, (3R)-N-{2-cyano-3-[(3-{4-[4-(1-{2-[(3S)-2,6-dioxopiperidin-3-yl]-1-oxo-2,3-dihydro-1H-isoindol-5-yl}azetidine-3-carbonyl)piperazin-1-yl]phenyl}-4-oxo-3,4-dihydroquinazolin-6-yl)oxy]-4-fluorophenyl}-3-fluoropyrrolidine-1-sulfonamide] | 10 to 30 nM | 35 to 70% | > 500 nM | –
